The text below walks through data of the NIST ThermoML archive (doi:10.1021/je700202h).

The conditions of this data set: 101.33 kPa, Liquid.

± gives the expanded uncertainty stated by the source.

Turning to `CCCCCCC` [heptane], the mass density – broadly, the mass of a sample divided by its volume – (293.15 K) worked out at 682.8 ± 0.7 kg/m3; the mass density (298.15 K) was determined as 678.6 ± 0.8 kg/m3; the mass density (303.15 K) is given as 674.7 ± 0.8 kg/m3; the mass density (308.15 K) is on record as 670.7 ± 0.9 kg/m3; the mass density (313.15 K) is given as 665.6 ± 0.9 kg/m3. Besides, the viscosity (commonly the internal friction of a fluid under shear) is listed as 0.4142 ± 0.0078 mPa·s (293.15 K); 0.3928 ± 0.0075 mPa·s (298.15 K); 0.3728 ± 0.0072 mPa·s (303.15 K); 0.3541 ± 0.007 mPa·s (308.15 K); 0.3374 ± 0.0067 mPa·s (313.15 K).
With `CCCCCCCCC` [nonane], the mass density runs as follows: (293.15 K) 717.9 ± 0.9 kg/m3; (298.15 K) 714 ± 0.9 kg/m3; (303.15 K) 710.8 ± 1 kg/m3; (308.15 K) 706.7 ± 1 kg/m3; (313.15 K) 702.8 ± 1.1 kg/m3. In addition, the viscosity turned out to be 0.7091 ± 0.012 mPa·s (293.15 K); 0.664 ± 0.012 mPa·s (298.15 K); 0.6217 ± 0.011 mPa·s (303.15 K); 0.5849 ± 0.011 mPa·s (308.15 K); 0.55 ± 0.01 mPa·s (313.15 K).
